Data published in ChEMBL document CHEMBL4699477, “Tricyclic sulfones as potent, selective and efficacious RORγt inverse agonists - Exploring C6 and C8 SAR using late-stage functionalization” (Bioorg Med Chem Lett, 2020).
Activity calls are given as the source filed them. The rule behind the calls is not given here.

Experiments:
[1] = Metabolic stability in rat liver microsomes assessed as half life; assay type: ADME, Microsome
[2] = Metabolic stability in human liver microsomes assessed as half life; assay type: ADME, Microsome
[3] = Metabolic stability in mouse liver microsomes assessed as half life; assay type: ADME, Microsome
[4] = Drug concentration in Balb/c mouse at 10 mg/kg, po measured after 24 hrs; assay type: ADME, organism-based; conditions: in vivo, read-out: Drug uptake
[5] = Cmax in Balb/c mouse at 10 mg/kg, po; assay type: ADME, organism-based; parameters: route oral, dose 10 mg/kg; conditions: in vivo
[6] = target: T1, Nuclear receptor ROR-gamma (Homo sapiens, UniProt P51449); experiment: Inverse agonist activity at RORgammat in CD3 and CD28-stimulated human whole blood assessed as reduction in IL17A production incubated for 1 hr before CD3 and CD28 stimulation for 20 hrs by AlphaLISA method; assay type: tissue-based
T1 sequence (P51449 whole entry): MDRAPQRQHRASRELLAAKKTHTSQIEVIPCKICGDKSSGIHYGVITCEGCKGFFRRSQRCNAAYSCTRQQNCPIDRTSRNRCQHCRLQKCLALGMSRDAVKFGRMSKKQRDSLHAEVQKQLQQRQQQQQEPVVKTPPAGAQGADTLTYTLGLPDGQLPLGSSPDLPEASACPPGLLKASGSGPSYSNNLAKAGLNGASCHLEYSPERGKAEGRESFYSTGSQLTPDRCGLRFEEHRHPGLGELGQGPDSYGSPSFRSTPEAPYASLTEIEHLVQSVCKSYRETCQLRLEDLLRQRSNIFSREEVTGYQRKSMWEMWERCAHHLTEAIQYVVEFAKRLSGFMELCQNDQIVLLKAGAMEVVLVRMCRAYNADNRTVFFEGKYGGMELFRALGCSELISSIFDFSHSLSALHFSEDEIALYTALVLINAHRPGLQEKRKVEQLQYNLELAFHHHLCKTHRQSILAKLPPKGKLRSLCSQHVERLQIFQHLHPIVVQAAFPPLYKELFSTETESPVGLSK

[7] = target: T1, Nuclear receptor ROR-gamma; experiment: Inverse agonist activity at Gal4-fused RORgammat (unknown origin)
[8] = GSH reactivity in human liver cytosol assessed as GSH adduct formation; assay type: ADME, subcellular, Cytoplasm
Mus musculus = experiment: Protection against recombinant human IL23-induced acanthosis C57BL/6 mouse model assessed as reduction in ear swelling at 50 mg/kg, po administered bid for 9 days; assay type: functional, organism-based; conditions: time 9.0 day

For `Cc1cc2c(cc1C(F)(C(F)(F)F)C(F)(F)F)CC[C@H]1N(C(=O)[C@H]3CC[C@H](C(=O)O)CC3)CC[C@@]21S(=O)(=O)c1ccc(F)cc1`, the half-life [1] was > 120 min, the half-life [2] was > 120 min and the half-life [3] was > 120 min.
`N#Cc1cc2c(cc1C(F)(C(F)(F)F)C(F)(F)F)CC[C@H]1N(C(=O)[C@H]3CC[C@H](C(=O)O)CC3)CC[C@@]21S(=O)(=O)c1ccc(F)cc1` gave a half-life [1] of 87 min, a concentration at 24 h [4] of 1600 nM and a Cmax [5] of 8.6 µM. For the same molecule, the half-life [2] was > 120 min, the EC50 [6] was 13 nM and the half-life [3] was > 120 min. The EC50 [7] was 17 nM.
With `C[C@H]1C[C@H](C(=O)O)CC[C@H]1C(=O)N1CC[C@@]2(S(=O)(=O)c3ccc(F)cc3)c3ccc(C(F)(C(F)(F)F)C(F)(F)F)cc3CC[C@@H]12` [BMS-986251] the Activity [8] was 6%, the half-life [1] was > 120 min and the half-life [2] was > 120 min. For the same molecule, the half-life [3] was > 120 min.
`C[C@H]1C[C@H](C(=O)O)CC[C@H]1C(=O)N1CC[C@@]2(S(=O)(=O)c3ccccc3)c3ccc(C(F)(C(F)(F)F)C(F)(F)F)cc3CC[C@@H]12` gave an EC50 [6] of 52 nM.
For `O=C(O)[C@H]1CC[C@H](C(=O)N2CC[C@@]3(S(=O)(=O)c4ccc(F)cc4)c4ccc(C(F)(C(F)(F)F)C(F)(F)F)cc4CC[C@@H]23)CC1`, the concentration at 24 h [4] was 400 nM and the Cmax [5] was 1.4 µM.
For `O=C(O)[C@H]1CC[C@H](C(=O)N2CC[C@@]3(S(=O)(=O)c4ccc(F)cc4)c4cc(Cl)c(C(F)(C(F)(F)F)C(F)(F)F)cc4CC[C@@H]23)CC1`, the half-life [1] was 83 min, the half-life [2] was > 120 min and the half-life [3] was > 120 min.
For `O=C(O)[C@H]1CC[C@H](C(=O)N2CC[C@](c3ccc(C(F)(C(F)(F)F)C(F)(F)F)cc3)(S(=O)(=O)c3ccc(F)cc3)C2)CC1`, the inhibition (Mus musculus) was “Active”.
